The text below walks through data of patent publication US20050119188A1, “Method of treating breast cancer” (priority 2003, published 2005).

The IC50 is the midpoint of a concentration-inhibition curve.

Assay [1] has as its system MCF-7arom breast tumor xenografts. Kind of assay: MCF-7arom breast tumor xenograft growth in vivo, FTI plus Letrozole. The settings on record: Day 10 of treatment. The arrangement: species or system athymic nude mice. As for the experimental part: (§1) Growth Studies in vivo. Female ovariectomized athymic nude mice were obtained from Charles River Laboratories (Worcester, Mass.). Androstenedione (Δ4A) pellets (25 mg and 15 mg, 90-day slow release) and 17β-estradiol (E2) pellets (0.72 mg, 60-day slow release) were from Innovative Research of America (Saratoga, Fla.). Anastrozole and Letrozole were obtained from Sequoia Research Products, Oxford, United Kingdom) and Tamoxifen was from Sigma Chemical Company.
(§2) To determine the effect of combined FTI plus Letrozole on the growth of MCF-7arom breast tumor xenografts, 5×10^6 MCF-7arom cells were inoculated into the right flank of the animals in 100 μl of Matrigel. Animals had been implanted with a 15 mg, 90-day Δ4A pellet the previous day. Fourteen days after cell inoculation, the animals were grouped (n=10) for treatment with: • 1) Vehicle • 2) Letrozole (2.5 mpk, p.o., once a day [q.d.]) • 3) FTI (20 mpk, p.o., b.i.d.) • 4) FTI (40 mpk, p.o., b.i.d.) • 5) FTI (20 mpk, p.o., b.i.d.)+Letrozole (2.5 mpk, p.o., q.d.) • 6) FTI (40 mpk, p.o., b.i.d.)+Letrozole (2.5 mpk, p.o., q.d.)
(§3) Treatment was continued for 28 days and tumor volumes were measured twice a week with calipers as described above.

Assay [2] deals with MCF-7 cells. Kind of assay: Growth studies in vitro: estrogen-stimulated MCF-7 cell proliferation (CellTiter-Glo luminescent viability assay). The format is cell-based, human. The settings on record: for IC50: single agent, E2 (1 nM)-stimulated MCF-7 cells, Day 6, read-out: IC50 value, inhibition of MCF-7 cell growth; for inhibition at 0.1 µM: read-out: inhibited cell proliferation. As for the experimental part: Cell lines. MCF-7 cells were provided from Dr. A. Brodie (University of Maryland School of Medicine, Baltimore, Md.) and cultured in DMEM supplemented with 5% fetal bovine serum (FBS) and 1% penicillin/streptomycin (P/S). MCF-7arom cells were provided from Dr. S. Chen (Beckman Research Institute of the City of Hope, Duarte, Calif.) and cultured in DMEM supplemented with 5% FBS and 750 μg/ml geneticin.
Growth studies in vitro. Six days prior to plating in 96-well plates, MCF-7 cells growing in T-75 flasks (30-50% confluent) were washed extensively with phenyl red-free DPBS and transferred to estrogen-depleted medium. Estrogen-depleted medium was phenyl red-free DMEM/F-12 containing 10% heat-treated and dextran-coated charcoal-treated fetal bovine serum and 1% penicillin/streptomycin solution. Estrogen depleted media was refreshed 3 days prior to plating. On Day 0, cells were seeded (1,200 cells/well) into 96-well plates in estrogen-depleted medium and allowed to attach. On Day 1 the media was aspirated and replaced in 6-well replicates with estrogen-depleted medium supplemented with E2 (1 nM), and 4-OH Tamoxifen (Sigma Chemical Company, St Louis, Mo. in the range 10 nM-10 μM), or Fulvestrant (Tocris, Ellisville, Mo. in the range 10 nM-1.0 μM), FTI (in the range 10 nM-10 μM), and a combination of the antiestrogens and FTI. Media containing drugs was refreshed on Day 3. The effects of treatment on cell proliferation were determined on Day 6 using the CellTiter-Glo luminescent viability assay (Promega Corp., Madison, Wis.).

Assay [3] has as its system MCF-7arom breast tumor xenografts. The assay is described as follows: MCF-7arom breast tumor xenograft growth in vivo, FTI plus Anastrozole. The arrangement: species or system athymic nude mice. The settings on record: for induction of tumor regression / tumor regression: 28 days; for inhibited tumor growth compared to vehicle-treated animals: 28 days of treatment. On the procedure:
as §1
MCF-7arom breast tumor growth was performed as described previously (Lu et al., 1999, Breast Cancer Res. Treat., 57, 183-192; Long et al., 2002, Clin Cancer Res., 8, 2378-2388) with minor modifications. To determine the effect of combined FTI plus Anastrozole on the growth of MCF-7arom breast tumor xenografts, 2.5×10^6 MCF-7arom cells were inoculated into the right flank of the animals in 100 μl of Matrigel (BD Biosciences, Bedford, Mass.). Animals had been implanted with a 25 mg, 90-day Δ4A pellet the previous day. Fourteen days after cell inoculation, the animals were grouped (n=10) for treatment with: • 1) Vehicle • 2) Anastrozole (5 mg per kg [mpk], orally [p.o.], twice a day [b.i.d.]) • 3) FTI (20 mpk, p.o., b.i.d.) • 4) FTI (40 mpk, p.o., b.i.d.) • 5) FTI (60 mpk, p.o., b.i.d.) • 6) FTI (20 mpk, p.o., b.i.d.)+Anastrozole (5 mpk, p.o., b.i.d.) • 7) FTI (40 mpk, p.o., b.i.d.)+Anastrozole (5 mpk, p.o., b.i.d.) • 8) FTI (60 mpk, p.o., b.i.d.)+Anastrozole (5 mpk, p.o., b.i.d.)
Treatment was continued for 28 days and tumor volumes were measured twice a week with calipers. Tumor volumes and animal body weights were recorded using LABCAT (Innovative Programming Associates Inc., Princeton, N.J.). Tumor volumes were calculated by the formula (w×l×h)/2.

For assay [4] the test system is unchanged. The assay is described as follows: MCF-7arom breast tumor xenograft growth in vivo, FTI plus Tamoxifen. On the set-up: species or system athymic nude mice. The settings on record: Day 10 of treatment. As for the experimental part: as §1
as §2, with “Tamoxifen” for “Letrozole”, “Tamoxifen (25” for “Letrozole (2.5”, “q.d.)” for “once a day [q.d.])”, “b.i.d.)+Tamoxifen (25” for “b.i.d.)+Letrozole (2.5”
as §3

In assay [5] the test system is MCF-7 breast tumor xenografts. Kind of assay: Estrogen-stimulated MCF-7 breast tumor xenograft growth in vivo, FTI plus Tamoxifen. The arrangement: species or system athymic nude mice. As for the experimental part:
as §1
MCF-7 breast tumor growth was performed as described previously (Osborne et al., 1995, J. Natl Cancer Inst., 87, 746-750) with minor modifications. To determine the effect of combined FTI plus Tamoxifen on the growth of MCF-7 breast tumor xenografts, 5.0×10^6 MCF-7 cells were inoculated into the right flank of the animals in 100 μl of Matrigel. Animals had been implanted with a 0.72 mg, 60-day pellet the previous day. Fourteen days after cell inoculation, the animals were grouped for treatment with: • 1) Vehicle • 2) Tamoxifen (25 mpk, p.o., q.d.) • 3) FTI (20 mpk, p.o., b.i.d.) • 4) FTI (40 mpk, p.o., b.i.d.) • 5) FTI (20 mpk, p.o., b.i.d.)+Tamoxifen (25 mpk, p.o., q.d.) • 6) FTI (40 mpk, p.o., b.i.d.)+Tamoxifen (25 mpk, p.o., q.d.)
as §3

Like-named read-outs stand apart in the source and are kept apart here.

For `N#Cc1ccc(C(c2ccc(C#N)cc2)n2cncn2)cc1` [Letrozole], in assay [1] (Letrozole 2.5 mpk p.o. q.d.), the inhibited tumor growth was 127% and the tumor regression amounted to 25%.

Take `CC/C(=C(\c1ccc(O)cc1)c1ccc(OCCN(C)C)cc1)c1ccccc1` [4-OH Tamoxifen, reference compound]: the IC50 in assay [2] was 450 nM. Further, in assay [2] (single-agent 4-OH Tamoxifen 1.0 μM (FIG. 1)), the inhibited cell proliferation came to 55%.

Consider `NC(=O)N1CCC(CC(=O)N2CCC([C@H]3c4ncc(Br)cc4CCc4cc(Cl)cc(Br)c43)CC2)CC1` [FTI], for which, in assay [2] (Homo sapiens, MCF7, 144 h), the IC50 was 40 nM. The inhibition at 0.1 µM stood at 56% in assay [2] (Homo sapiens, MCF7, single-agent FTI 0.1 μM, 4-OH Tamoxifen experiment (FIG. 1)) and 43% in assay [2] (Homo sapiens, MCF7, single-agent FTI 0.1 μM, Fulvestrant experiment (FIG. 2)). Besides, the “induction of tumor regression” value in assay [3] (FTI 20 mpk b.i.d.) is “did not induce tumor regression”. Moreover, the “inhibited tumor growth compared to vehicle-treated animals” value in assay [3] (FTI 20 mpk p.o. b.i.d.) was determined as 56%. Also, the tumor regression in assay [3] (single-agent FTI 40 mpk b.i.d.) is 16%; in assay [3] (single-agent FTI 60 mpk b.i.d.) it was 40%. The inhibited tumor growth in assay [1] (FTI 40 mpk p.o. b.i.d.) and in assay [4] (FTI 40 mpk p.o. b.i.d.) was 16% each time. Also, the “tumor regression, % of initial starting volume” value in assay [5] (single-agent FTI 40 mpk b.i.d., Day 14 of treatment) came to 57%.

With `CC(C)(C#N)c1cc(Cn2cncn2)cc(C(C)(C)C#N)c1` [Anastrozole, reference compound], the “induction of tumor regression” value in assay [3] (Anastrozole 5 mpk b.i.d.) is “did not induce tumor regression”. Also, in assay [3] (Anastrozole 5 mpk p.o. b.i.d.), the “inhibited tumor growth compared to vehicle-treated animals” value was determined as 62%.

`CC/C(=C(\c1ccccc1)c1ccc(OCCN(C)C)cc1)c1ccccc1` [Tamoxifen, reference compound]: the inhibited tumor growth in assay [4] (Tamoxifen 25 mpk p.o. q.d.) is 22%; in assay [5] (Tamoxifen 25 mpk q.d., 14 days of treatment), 29%.

Turning to `C[C@]12CC[C@@H]3c4ccc(O)cc4C[C@@H](CCCCCCCCC[S+]([O-])CCCC(F)(F)C(F)(F)F)[C@H]3[C@@H]1CC[C@@H]2O` (stereo partly shown) [Fulvestrant, reference compound], the inhibition at 0.1 µM in assay [2] (Homo sapiens, MCF7, single-agent Fulvestrant 0.1 μM (FIG. 2)) turned out to be 53%.
